Experimental data: US20090221095A1, “Colorimetric Screening of DNA Binding/Intercalating Agents with Gold Nanoparticle Probes” (NORTHWESTERN UNIVERSITY, priority 2005, published 2009)

Assays:
[1] = system: triplex DNA (DNA-1, DNA-2, DNA-3); test: UV melting (260 nm) of unmodified triplex DNA-1, DNA-2, DNA-3 (no nanoparticles); type: binding; conditions: solution-phase unmodified DNA, 1 μM each strand, 6 μM binder, 0.5 M NaCl 10 mM PBS
Description: To compare the results from the previous examples with more traditional screening techniques, all eight intercalators were screened, plus a control, by monitoring UV absorbance melting curves (260 nm) of unmodified DNA-1, DNA-2, and DNA-3 (1 μM each), with each intercalator (10 μM), (DNA-1; 3′ TTCTTCTTTTTT CT-5′. DNA-2: 5′-TTCTTCTTTTTTCT-3′, DNA-3: 5′-AAGAAGAAAAAA-3′). (FIG. 2B). The melting experiment performed in the presence of BePl has two melting transitions. The first Tm at 34.8° C. is associated with the denaturation of the triplex structure and the second Tm at 61.4° C. is representative of the corresponding duplex.
To determine the Tm of the duplex DNA in the presence of DNA binders, 2 μM duplex DNA and 5 μM DNA binder were combined in 0.3 M NaCl 10 mM PBS. To determine the Tm of the triplex DNA in the presence of DNA binders, 1 μM of each strand and 6 μM of each DNA binder were combined in 0.5 M NaCl 10 mM PBS. UV-vis melting curves were measured on a CARRY 500 spectrophotometer equipped with a circulating bath. The melting process was monitored by measuring the change in extinction at 260 nm. The solutions were stirred continuously with a magnetic stir bar as the solution temperature was increased at a rate of 0.5° C./min. The first derivative generated from the melting curves was used to determine the Tm.
A melting transition associated with the triple helix was found only for experiments performed in the presence of BePI (34.8° C.) and CORA (17.1° C.) where BePI is determined to be the stronger binder. This is in agreement with the results determined by the chip-based scanometric method described above.

[2] = system: triplex DNA on chip surface; test: Chip-based scanometric detection of triplex DNA binders (silver enhancement); type: binding; conditions: 0.3 M NaCl, binder 5 μM, DNA-3 150 nM
Description: For scanometric detection of duplex or triplex DNA binding molecules, Au nanoparticles (1 nM) and DNA binding molecules (5 μM) in 10 mM PBS buffer of varying NaCl concentrations were added to the microarray slide under hybridization wells (Nanosphere, Inc.). For detection of triplex binders, 150 nM DNA-3 was added. DNA hybridization proceeded for 30 min (for duplex DNA binders) or 1 h (for triplex DNA binders) in a humidity chamber. After hybridization, the slides were washed three times with 0.5 M NaNO3 containing 0.02% Tween 20. The arrays were dried using a benchtop spinner. Silver enhancement solution (Nanosphere, Inc.) was added for Au-NP signal amplification (1 mL total volume/array, 1.5-min development time for duplex DNA binding molecules and 3 min for triplex binding molecules). The reaction was terminated by washing the slides with NANOpure® water and spin-drying. Light-scattering images from the silver-enhanced chips were recorded using the high-resolution Verigene ID system (Nanosphere, Inc.).
Capture strands of synthetic oligonucleotides are patterned on a glass chip using a microarrayer. The DNA chip is then exposed to a solution containing three components: 1) complementary DNA (no nanoparticles), 2) DNA functionalized Au nanoparticles (DNA is non-complementary to the arrayed DNA) and 3) DNA binders, Scheme 4. The complementary solution-phase DNA, called DNA-3 in Scheme 2, hybridizes to the DNA on the chip surface and forms a duplex. The Au nanoparticle-bound DNA has the correct sequence to form a triplex with the surface bound duplex through sequence-specific Hoogsteen, or reverse Hoogsteen, base pairing. The triplex structure is relatively unstable at room temperature and will only form in the presence of triplex DNA binding molecules. The presence of the triplex DNA binding molecules increase the stability of the triplex, immobilizing the Au nanoparticles on the chip surface. The chip was then exposed to silver enhancement solution for further signal enhancement and then imaged using a Verigene ID scanner.
The assay was performed in the presence of two triplex binders, coralyn (CORA) and benzo[e]pyridoindole (BePI), seven duplex DNA binders, 4′,6-diamidino-2-phenylindole (DAPI), ellipticine (EIPT), amsacrine (AMSA), daunorubicin (DNR), anthraquinone-2-carboxylic acid (AQ2A), ethidium bromide (EB), and 9-aminoacridine (9-AA))., and one control (no DNA-3). Similar to the DNA duplex, the formation of the DNA triplex is a reversible process which is affected by both temperature and salt concentration. However, compared to the duplex, the stability of the triplex is much more sensitive to salt concentration. Therefore, to determine the relative binding strength of the triplex DNA binders, the assay was performed at varying salt concentrations, FIG. 7. At 0.3 M NaCl, both the strong (BePI) and weaker (CORA) triplex binders show signal.

COc1cc2cc3c4cc(OC)c(OC)cc4cc[n+]3c(C)c2cc1OC [CORA, coralyn]
Tm 2-1 ([1]; duplex melting transition): 60.1 °C | Tm3-2 ([1]; triple helix melting transition, ND read as not detected): 17.1 °C | scanometric signal [2]: show signal
